Laboratory results from US4952580A, “Pesticidal polyhaloalkene derivatives” (priority 1988, dated 1990).
Where two headings read alike, the source gives them in different places.

Key:
[1] = test system: root-knot nematode (Meloidogyne incognita); experiment: Initial Root-Knot Nematicidal Activity; format: in vivo; settings: 336 h, read-out: Percent Control; for pest or weed control at 0.078 ppm: Table 2, Application Rate 0.078 ppm; for pest or weed control at 0.156 ppm: Table 2, Application Rate 0.156 ppm
In short: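 Compound incorporated into Meloidogyne incognita-infested soil at 10 ppm to 0.078 ppm, then planted with tomato or cucumber seedlings. Root galling scored two weeks after planting as a knot index and converted to percent control, given as averages.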

root-knot nematode [2] = experiment: Residual Root-Knot Nematicidal Activity; format: in vivo, Meloidogyne incognita; settings: read-out: Percent Control
In short: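 Soil received 5% dust formulation at 5 and 10 ppm test compound and was held in a greenhouse, then infested with root-knot nematode eggs and larvae at 1, 2 and 4 weeks post-treatment. Cucumber or tomato seedlings were planted and scored about two weeks after infestation for Knot Index and Percent Control.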

stunt nematode = experiment: Stunt Nematode Test; format: in vivo
lesion nematode = experiment: Lesion Nematode Test; format: in vivo; settings: read-out: Percent Control
In short: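 Run as the stunt nematode test but on pea seedlings; compounds applied as dust formulations (initial and residual activity) or acetone/water formulations (systemic activity), with untreated samples as reference. Percent control derived by formula.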

cyst nematode = experiment: Cyst Nematode Test; format: in vivo; settings: read-out: Percent Control
Method: (§1) Compounds of this invention were tested as follows for nematicidal and anthelmintic activity as dust formulations (initial and residual activity) and as acetone/water formulations (systemic activity). The formulations are described above.
The procedures was substantially the same as described in the stunt nematode test except soybean seedlings were used. "Percent Control" (Table 6 appended) is as defined in the stunt nematode test results.

root-knot nematode [3] = experiment: Soil Mobility against root-knot nematode; format: in vivo, Meloidogyne incognita; settings: 336 h
In short: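 Soil mobility of the nematicidal test material was evaluated by placing treated, nematode-infested soil in 8 cm plastic pots stacked above two or more pots of untreated infested soil, each containing a 10 cm^3 sand layer and filter paper discs. Fifteen cm of water was dripped through, pots drained 16-18 hours, then were planted with cucumber or tomato seedlings and scored for Percent Control.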

root-knot nematode [4] = experiment: Systemic Activity (basipetal, foliar spray) against root-knot nematode; format: in vivo, Meloidogyne incognita; settings: 336 h, read-out: Percent Control; for pest or weed control at 1250 ppm: Table 8, rate 1250 ppm; for pest or weed control at 2000 ppm: Table 8, rate 2000 ppm
Method: as §1
Compounds of the invention were tested for basipetal systemic activity against the root-knot nematode. In this test, tomato plants are grown in 10.2 cm diameter fiber pots containing steam-pasteurized soil mix (50%, soil, 50% sand) until 4-6 true leaves appear. Three of the pots are then placed on a turntable in a spray hood and the plants sprayed with 50 ml of water/acetone solution containing the test compound. The soil surface is covered during the spraying to prevent spraying of the soil. After treatment, the potted plants are placed in a lighted drying chamber. The plants are then grown in a growth chamber at 25° C. for three days and inoculated with a standard nematode culture by incorporating the inoculum into the top cm of soil in the pots. The plants are returned to the growth chamber for about two weeks at which time the pots are allowed to dry until the plants begin to wilt. The roots are shaken free of soil and the degree of galling (swelling) noted as compared to galling of untreated control plants. The results are expressed as Knot Index and Percent Control as defined in the initial root-knot nematode activity tests reported above in Table 2.

Caenorhabditis elegans = experiment: C. Elegans Nematode Screening Test and Evaluation (in-vitro); settings: Caenorhabditis elegans
In short: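 Worms (10-15 per well) in buffer with E. coli food, ampicillin and mycostatin; compound added in DMSO, 2-3 replicates per rate. Incubated 5-6 days at 20° C. Population development scored against untreated wells, noting effects such as reduced egg hatch or molting disruption.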

corn seedling = experiment: Phytotoxicity noted in Stunt Nematode Test; format: in vivo; design: key: *: Some phytotoxicity; settings: Table 4a; rate 5 ppm
Text: The procedure was substantially the same as in the initial root-knot nematode tests described above except that rates of application of formulated compound were 2.5 and 5 ppm in soil containing a corn seedling, with subsequent inoculation of the soil with combined larvae and adult stunt nematodes. The samples were evaulated approximately four weeks after infestation. The results (Tables 4 and 4a appended) indicate good control at the test application rates as compared with untreated samples where no control was observed. "Percent control" means the difference between average population counts between untreated and treated samples, divided by average population count of untreated sample, multiplied by 100.

[5] = Table 2, Application Rate 0.625 ppm
[6] = Table 2, Application Rate 1.25 ppm
[7] = Table 2, Application Rate 2.5 ppm
[8] = 168 h, Table 3a, 5% dust, 5 ppm, inoculation 1 week post-treatment
[9] = 336 h, Table 3a, 5% dust, 5 ppm, inoculation 2 weeks post-treatment
[10] = 672 h, Table 4a; rate 5 ppm; read-out: Percent Control
[11] = Table 7a, 5% dust, 5 ppm, BOTTOM container, read-out: Percent Control
[12] = Table 7a, 5% dust, 5 ppm, MIDDLE container, read-out: Percent Control
[13] = Table 7a, 5% dust, 5 ppm, TOP container, read-out: Percent Control
[14] = Table 9 screen, 5 ppm, read-out: Percent Inhibition of Reproduction
[15] = Table 9 screen, 5 ppm, read-out: Percent Mortality
[16] = Table 2, Application Rate 0.312 ppm
[17] = read-out: Percent Control, Table 7a, 5% dust, 5 ppm, MIDDLE container
[18] = 672 h, Table 3a, 5% dust, 5 ppm, inoculation 4 weeks post-treatment

Compound	pest or weed control at 0.078 ppm [1]	pest or weed control at 0.156 ppm [1]	pest or weed control at 0.625 ppm [1, 5]	pest or weed control at 1.25 ppm [1, 6]	pest or weed control at 2.5 ppm [1, 7]	pest or weed control at 5 ppm (root-knot nematode [2]; [8])	pest or weed control at 5 ppm (root-knot nematode [2]; [9])	pest or weed control at 5 ppm (root-knot nematode [2]; 672 h)	pest or weed control at 5 ppm (stunt nematode; [10])	pest or weed control at 2.5 ppm (lesion nematode; Table 5, rate 2.5 ppm)	pest or weed control at 5 ppm (cyst nematode; Table 6, rate 5 ppm)	pest or weed control at 5 ppm (root-knot nematode [3]; [11])	pest or weed control at 5 ppm (root-knot nematode [3]; [12])	pest or weed control at 5 ppm (root-knot nematode [3]; [13])	pest or weed control at 2000 ppm (root-knot nematode [4]; foliar)	inhibition at 5 ppm (Caenorhabditis elegans; [14])	mortality at 5 ppm (Caenorhabditis elegans; [15])	pest or weed control at 0.312 ppm [1, 16]	pest or weed control at 5 ppm (root-knot nematode [2]; [18])	also measured
C=CCSc1nnc(SCCC(F)=C(F)F)s1 [Compound 31, 2-(2-propenylthio)-5-(3,4,4-trifluoro-3-butenylthio)-1,3,4-thiadiazole]	0%	13%	78%	96%	99%	97%	97%	95%	52%	11%	7%	50%	86%	98%	71%	38%	0%			pest or weed control at 1250 ppm (root-knot nematode [4]; foliar): 0%
FC(F)=C(F)CCSc1nnc(SCc2cccs2)s1 [Compound 36, 2-(2-thienylmethylthio)-5-(3,4,4-trifluoro-3-butenylthio)-1,3,4-thiadiazole]	0%	25%	96%	99%	100%	98%	99%	95%			37%	0%		97%	97%			69%		pest or weed control at 1.25 ppm (lesion nematode; Table 5, rate 1.25 ppm): 2%; pest or weed control at 0.625 ppm (lesion nematode; Table 5, rate .625 ppm): 0%; pest or weed control at 5 ppm (root-knot nematode [3]; [17]): 17%; pest or weed control at 1250 ppm (root-knot nematode [4]): 17%
FC(F)=C(F)CCSc1nnc(Cc2ccc(F)cc2F)o1 [Compound 46, 2-(2,4-difluorophenylmethyl)-5-(3,4,4-trifluoro-3-butenylthio)-1,3,4-oxadiazole]			98%	98%	99%	99%	100%		65%	77%		78%	97%	96%				85%	99%	Some phytotoxicity (corn seedling): *
O=[N+]([O-])c1ccc(CSc2nnc(SCCC(F)=C(F)F)s2)cc1 [Compound 35, 2-(4-nitrophenylmethylthio)-5-(3,4,4-trifluoro-3-butenylthio)-1,3,4-thiadiazole]	0%	6%		98%	100%	99%	96%		77%		0%	0%	50%	99%	0%	100%	100%	67%	84%	mortality at 5 ppm (Caenorhabditis elegans; Table 10 evaluation, 5 ppm, read-out: Percent Mortality): 100%; inhibition at 1.25 ppm (Caenorhabditis elegans; Table 10 evaluation, 1.25 ppm, read-out: Percent Inhibition of Reproduction): 100%; mortality at 1.25 ppm (Caenorhabditis elegans; Table 10 evaluation, 1.25 ppm, read-out: Percent Mortality): 100%; inhibition at 2.5 ppm (Caenorhabditis elegans; Table 10 evaluation, 2.5 ppm, read-out: Percent Inhibition of Reproduction): 100%; mortality at 2.5 ppm (Caenorhabditis elegans; Table 10 evaluation, 2.5 ppm, read-out: Percent Mortality): 100%
FCCSc1nnc(SCCC(F)=C(F)F)s1 [Compound 27, 2-(2-fluoroethylthio)-5-(3,4,4-trifluoro-3-butenylthio)-1,3,4-thiadiazole]								99%									0%			pest or weed control at 0.312 ppm [1]: 31%; pest or weed control at 0.625 ppm [1]: 79%; pest or weed control at 1.25 ppm [1]: 99%; pest or weed control at 2.5 ppm [1]: 100%; pest or weed control at 5 ppm (root-knot nematode [2]; 168 h): 99%; pest or weed control at 5 ppm (root-knot nematode [2]; 336 h): 97%; pest or weed control at 5 ppm (stunt nematode; 672 h; Table 4a; rate 5 ppm; read-out: Percent Control): 62%; pest or weed control at 2.5 ppm (lesion nematode): 63%; pest or weed control at 5 ppm (cyst nematode): 57%; pest or weed control at 5 ppm (root-knot nematode [3]; read-out: Percent Control, Table 7a, 5% dust, 5 ppm, BOTTOM container): 100%; pest or weed control at 5 ppm (root-knot nematode [3]; [17]): 100%; pest or weed control at 5 ppm (root-knot nematode [3]; read-out: Percent Control, Table 7a, 5% dust, 5 ppm, TOP container): 99%; inhibition at 5 ppm (Caenorhabditis elegans; read-out: Percent Inhibition of Reproduction): 38%
FC(F)=C(F)CCSc1nnc(Cc2ccccc2F)o1 [Compound 44, 2-(2-fluorophenylmethyl)-5-(3,4,4-trifluoro-3-butenylthio)-1,3,4-oxadiazole]			76%	86%	98%	100%	100%		75%	88%	59%	96%	100%	100%		25%	0%	50%	100%	
FC(F)=C(F)CCSc1nnc(Cc2ccc(F)cc2)o1 [Compound 45, 2-(4-fluorophenylmethyl)-5-(3,4,4-trifluoro-3-butenylthio)-1,3,4-oxadiazole]			99%	99%	99%	99%	100%		80%	41%		83%	97%	98%		25%	0%		98%	pest or weed control at 0.312 ppm [1]: 95%; Some phytotoxicity (corn seedling): *
